Test results taken from patent US9738634B2, “Heterocyclic amide compound and herbicide” (SYNGENTA PARTICIPATIONS AG, priority 2013, dated 2017).

Experiments:
Type in all cases: in vivo
chickweed [1] = assay: Test Example 3: weedkilling efficacy through soil treatment; N: chickweed; settings: treatment dosage 315 g/ha
Outline: (§1)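 Crop and weed responses were judged three weeks after a uniform surface spray of the water-diluted emulsion at the given g/ha rate. Seeds sat beneath about 1.5 cm of sterilized diluvial soil, and boxes stood in a greenhouse at 25 to 30° C.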

directly sown rice [2] = assay: Test Example 4: foliar treatment, effect on crop; b: directly sown rice; settings: treatment dosage 315 g/ha
Outline: (§2)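 Seeds are spot-sown into sterilized diluvial soil and covered with about 1.5 cm of soil. After 14 days' greenhouse growth at 25 to 30° C, plants are sprayed on stems and leaves with diluted emulsion at the stated g/ha rate, then scored at 3 weeks.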

green foxtail [3] = assay: Test Example 3: weedkilling efficacy through soil treatment; E: green foxtail; settings: treatment dosage 315 g/ha
Outline: as §1

Italian ryegrass [4] = assay: Test Example 3: weedkilling efficacy through soil treatment; I: Italian ryegrass; settings: treatment dosage 315 g/ha
Outline: as §1

chickweed [5] = assay: Test Example 4: weedkilling efficacy by foliar treatment; N: chickweed; settings: treatment dosage 315 g/ha
Outline: as §2

catchweed = assay: Test Example 4: weedkilling efficacy by foliar treatment; O: catchweed; settings: treatment dosage 315 g/ha
Outline: as §2

crabgrass [6] = assay: Test Example 4: weedkilling efficacy by foliar treatment; D: crabgrass; settings: treatment dosage 315 g/ha
Outline: as §2

corn [7] = assay: Test Example 4: foliar treatment, effect on crop; c: corn; settings: treatment dosage 315 g/ha
Outline: as §2

transplanted rice = assay: Test Example 1: preemergent weed treatment in the submerged state, effect on crop; a: transplanted rice; settings: treatment dosage 252 g/ha
Outline: (§3)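 Pre-emergence paddy test: weed seeds sown in submerged alluvial soil (4 cm water), 2.5-leaf rice transplanted, water-diluted emulsion applied to water surface at sowing at stated g/ha. Scored at 3 weeks, greenhouse 25–30 °C.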

birds-eye speedwell [8] = assay: Test Example 4: weedkilling efficacy by foliar treatment; p: birds-eye speedwell; settings: treatment dosage 315 g/ha
Outline: as §2

Indian mallow [9] = assay: Test Example 4: weedkilling efficacy by foliar treatment; K: Indian mallow; settings: treatment dosage 315 g/ha
Outline: as §2

fig-leafed goosefoot [10] = assay: Test Example 3: weedkilling efficacy through soil treatment; M: fig-leafed goosefoot; settings: treatment dosage 315 g/ha
Outline: as §1

fig-leafed goosefoot [11] = assay: Test Example 4: weedkilling efficacy by foliar treatment; M: fig-leafed goosefoot; settings: treatment dosage 315 g/ha
Outline: as §2

beet [12] = assay: Test Example 4: foliar treatment, effect on crop; f: beet; settings: treatment dosage 315 g/ha
Outline: as §2

birds-eye speedwell [13] = assay: Test Example 3: weedkilling efficacy through soil treatment; p: birds-eye speedwell; settings: treatment dosage 315 g/ha
Outline: as §1

Italian ryegrass [14] = assay: Test Example 4: weedkilling efficacy by foliar treatment; I: Italian ryegrass; settings: treatment dosage 315 g/ha
Outline: as §2

Indian mallow [15] = assay: Test Example 3: weedkilling efficacy through soil treatment; K: Indian mallow; settings: treatment dosage 315 g/ha
Outline: as §1

directly sown rice [16] = assay: Test Example 3: soil treatment, effect on crop; b: directly sown rice; settings: treatment dosage 315 g/ha
Outline: as §1

oval-leafed pondweed [17] = assay: Test Example 1: weedkilling efficacy, preemergent weed treatment in the submerged state; C: oval-leafed pondweed; settings: treatment dosage 252 g/ha
Outline: as §3

crabgrass [18] = assay: Test Example 3: weedkilling efficacy through soil treatment; D: crabgrass; settings: treatment dosage 315 g/ha
Outline: as §1

bulrush [19] = assay: Test Example 1: weedkilling efficacy, preemergent weed treatment in the submerged state; B: bulrush; settings: treatment dosage 252 g/ha
Outline: as §3

wheat [20] = assay: Test Example 3: soil treatment, effect on crop; e: wheat; settings: treatment dosage 315 g/ha
Outline: as §1

black-grass [21] = assay: Test Example 3: weedkilling efficacy through soil treatment; H: black-grass; settings: treatment dosage 315 g/ha
Outline: as §1

wild oat = assay: Test Example 3: weedkilling efficacy through soil treatment; G: wild oat; settings: treatment dosage 315 g/ha
Outline: as §1

redroot pigweed [22] = assay: Test Example 4: weedkilling efficacy by foliar treatment; L: redroot pigweed; settings: treatment dosage 315 g/ha
Outline: as §2

redroot pigweed [23] = assay: Test Example 3: weedkilling efficacy through soil treatment; L: redroot pigweed; settings: treatment dosage 315 g/ha
Outline: as §1

oval-leafed pondweed [24] = assay: Test Example 2: weedkilling efficacy, growth period weed treatment in the submerged state; C: oval-leafed pondweed; settings: treatment dosage 252 g/ha
Outline: (§4)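 Seedlings at 1-2 leaves in 4 cm-deep submerged alluvial soil received emulsion formulations on the water surface, dosed per hectare; effects were judged 3 weeks on.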

beet [25] = assay: Test Example 3: soil treatment, effect on crop; f: beet; settings: treatment dosage 315 g/ha
Outline: as §1

bulrush [26] = assay: Test Example 2: weedkilling efficacy, growth period weed treatment in the submerged state; B: bulrush; settings: treatment dosage 252 g/ha
Outline: as §4

corn [27] = assay: Test Example 3: soil treatment, effect on crop; c: corn; settings: treatment dosage 315 g/ha
Outline: as §1

barnyard grass [28] = assay: Test Example 1: weedkilling efficacy, preemergent weed treatment in the submerged state; A: barnyard grass; settings: treatment dosage 252 g/ha
Outline: as §3

barnyard grass [29] = assay: Test Example 2: weedkilling efficacy, growth period weed treatment in the submerged state; A: barnyard grass; settings: treatment dosage 252 g/ha
Outline: as §4

soybean [30] = assay: Test Example 4: foliar treatment, effect on crop; d: soybean; settings: treatment dosage 315 g/ha
Outline: as §2

soybean [31] = assay: Test Example 3: soil treatment, effect on crop; d: soybean; settings: treatment dosage 315 g/ha
Outline: as §1

wheat [32] = assay: Test Example 4: foliar treatment, effect on crop; e: wheat; settings: treatment dosage 315 g/ha
Outline: as §2

black-grass [33] = assay: Test Example 4: weedkilling efficacy by foliar treatment; H: black-grass; settings: treatment dosage 315 g/ha
Outline: as §2

green foxtail [34] = assay: Test Example 4: weedkilling efficacy by foliar treatment; E: green foxtail; settings: treatment dosage 315 g/ha
Outline: as §2

SMILES: CSc1nsc(NC(=O)C(C)(C)N2COC(C)=C(c3ccsc3)C2=O)n1 [B-1-05]
- N (chickweed) weedkilling efficacy grade (chickweed [1]): 4 (weed kill ratio 70% or more, less than 90%)
- b (directly sown rice) effect on crop grade (directly sown rice [2]): 4 (weed kill ratio 70% or more, less than 90%)
- E (green foxtail) weedkilling efficacy grade (green foxtail [3]): 5 (weed kill ratio 90% or more, (practically complete withering))
- I (Italian ryegrass) weedkilling efficacy grade (Italian ryegrass [4]): 0 (weed kill ratio 5% or less (practically no effect))
- N (chickweed) weedkilling efficacy grade (chickweed [5]): 4 (weed kill ratio 70% or more, less than 90%)
- O (catchweed) weedkilling efficacy grade (catchweed): 4 (weed kill ratio 70% or more, less than 90%)
- D (crabgrass) weedkilling efficacy grade (crabgrass [6]): 5 (weed kill ratio 90% or more, (practically complete withering))
- c (corn) effect on crop grade (corn [7]): 2 (weed kill ratio 20% or more, less than 40%)
- a (transplanted rice) effect on crop grade (transplanted rice): 4 (weed kill ratio 70% or more, less than 90%)
- P (birds-eye speedwell) weedkilling efficacy grade (birds-eye speedwell [8]): 5 (weed kill ratio 90% or more, (practically complete withering))
- K (Indian mallow) weedkilling efficacy grade (Indian mallow [9]): 5 (weed kill ratio 90% or more, (practically complete withering))
- M (fig-leafed goosefoot) weedkilling efficacy grade (fig-leafed goosefoot [10]): 5 (weed kill ratio 90% or more, (practically complete withering))
- M (fig-leafed goosefoot) weedkilling efficacy grade (fig-leafed goosefoot [11]): 5 (weed kill ratio 90% or more, (practically complete withering))
- f (beet) effect on crop grade (beet [12]): 4 (weed kill ratio 70% or more, less than 90%)
- P (birds-eye speedwell) weedkilling efficacy grade (birds-eye speedwell [13]): 5 (weed kill ratio 90% or more, (practically complete withering))
- I (Italian ryegrass) weedkilling efficacy grade (Italian ryegrass [14]): 4 (weed kill ratio 70% or more, less than 90%)
- K (Indian mallow) weedkilling efficacy grade (Indian mallow [15]): 4 (weed kill ratio 70% or more, less than 90%)
- b (directly sown rice) effect on crop grade (directly sown rice [16]): 5 (weed kill ratio 90% or more, (practically complete withering))
- C (oval-leafed pondweed) weedkilling efficacy grade (oval-leafed pondweed [17]): 5 (weed kill ratio 90% or more, (practically complete withering))
- D (crabgrass) weedkilling efficacy grade (crabgrass [18]): 5 (weed kill ratio 90% or more, (practically complete withering))
- B (bulrush) weedkilling efficacy grade (bulrush [19]): 5 (weed kill ratio 90% or more, (practically complete withering))
- e (wheat) effect on crop grade (wheat [20]): 0 (weed kill ratio 5% or less (practically no effect))
- H (black-grass) weedkilling efficacy grade (black-grass [21]): 5 (weed kill ratio 90% or more, (practically complete withering))
- G (wild oat) weedkilling efficacy grade (wild oat): 5 (weed kill ratio 90% or more, (practically complete withering))
- L (redroot pigweed) weedkilling efficacy grade (redroot pigweed [22]): 5 (weed kill ratio 90% or more, (practically complete withering))
- L (redroot pigweed) weedkilling efficacy grade (redroot pigweed [23]): 4 (weed kill ratio 70% or more, less than 90%)
- C (oval-leafed pondweed) weedkilling efficacy grade (oval-leafed pondweed [24]): 5 (weed kill ratio 90% or more, (practically complete withering))
- f (beet) effect on crop grade (beet [25]): 5 (weed kill ratio 90% or more, (practically complete withering))
- B (bulrush) weedkilling efficacy grade (bulrush [26]): 5 (weed kill ratio 90% or more, (practically complete withering))
- c (corn) effect on crop grade (corn [27]): 1 (weed kill ratio 5% or more, less than 20%)
- A (barnyard grass) weedkilling efficacy grade (barnyard grass [28]): 5 (weed kill ratio 90% or more, (practically complete withering))
- A (barnyard grass) weedkilling efficacy grade (barnyard grass [29]): 5 (weed kill ratio 90% or more, (practically complete withering))
- d (soybean) effect on crop grade (soybean [30]): 0 (weed kill ratio 5% or less (practically no effect))
- d (soybean) effect on crop grade (soybean [31]): 0 (weed kill ratio 5% or less (practically no effect))
- e (wheat) effect on crop grade (wheat [32]): 0 (weed kill ratio 5% or less (practically no effect))
- H (black-grass) weedkilling efficacy grade (black-grass [33]): 5 (weed kill ratio 90% or more, (practically complete withering))
- E (green foxtail) weedkilling efficacy grade (green foxtail [34]): 5 (weed kill ratio 90% or more, (practically complete withering))
